Data: US20260070902A1, “SULFONYL DERIVATIVES AS CCR6 INHIBITORS” (Hoffmann-La Roche Inc., priority 2022, published 2026)

Key:
human CCR6 [1] = target: T1, human CCR6 (Homo sapiens, UniProt P51684); assay: CHO-K1 CCR6 chemotaxis assay towards CCL20; format: cell-based; conditions: relative -Log IC50; CHO-K1 cells overexpressing human CCR6; migration towards 100 ng/ml CCL20; 4 h
T1 sequence (P51684 1-374): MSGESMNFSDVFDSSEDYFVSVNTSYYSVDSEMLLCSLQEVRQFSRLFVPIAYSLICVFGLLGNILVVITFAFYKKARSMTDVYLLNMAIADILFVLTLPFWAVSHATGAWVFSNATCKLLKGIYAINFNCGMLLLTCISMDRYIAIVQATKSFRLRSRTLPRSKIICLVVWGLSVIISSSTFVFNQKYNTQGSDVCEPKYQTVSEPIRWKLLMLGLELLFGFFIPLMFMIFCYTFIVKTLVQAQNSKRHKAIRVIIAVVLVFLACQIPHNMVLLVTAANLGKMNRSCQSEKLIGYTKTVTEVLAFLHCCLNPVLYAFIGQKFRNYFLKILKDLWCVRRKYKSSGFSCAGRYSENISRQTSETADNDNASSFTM
From the text: CHO-K1 CCR6 Chemotaxis Assay Towards CCL20
Cells overexpressing human CCR6 were used in the chemotaxis assay (DiscoverX, cAMP Hunter™ CHO-K1 CCR6 Gi Cell Line). Growth medium of these cells consisted of DMEM/F12, non-essential Amino acids (1×NEAA, Gibco 11140050), 10% FBS and 1× pen/strep (Gibco 15140). For the chemotaxis assay, Corning Transwell plates were used with a pore size of 8 m (Corning 351164). Cells were harvested using trypsin and diluted to 4*10^6 cells/ml in chemotaxis medium (DMEM, 0.25% BSA, pen/strep). Compounds were four-fold serially diluted in DMSO. Further dilutions were made in chemotaxis medium. Cells were incubated with test compounds for 30 min at 37° C. prior to initiation of the assay (2*10^6 cells/ml). Final DMSO concentration in the assay was 0.2%. Wells of the Transwell plates were filled with 200 μl chemotaxis medium containing 100 ng/ml CCL20 (R&D systems 360-MP). 50 μl of the cell/compound suspension was added to the inserts of the Transwell plates (100,000 cells/insert). The Transwell plates were placed in an incubator at 37° C., 5% CO2 for 4 h. After 4 h, the number of migrated cells was quantified using CellTiter Glo (Promega). Percentage inhibition values were calculated based on the low and high signal obtained with 0.2% DMSO in chemotaxis medium without and with CCL20, respectively. The relative −Log IC50 was determined with GraphPad Prism 9 using a four-parameter dose-response model.

human CCR6 [2] = target: T1, human CCR6; assay: Human CCR6-CRE reporter assay; format: cell-based; design: The second construct contained the open reading frame of human CCR6 in the pUNO1 backbone; host or cells: 293FT cells; conditions: relative -Log IC50; 293FT cells transfected with human CCR6 and CRE-luciferase reporter; 6 μM Forskolin, 6 nM CCL20; 5 h
How it was run: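 293FT cells transiently co-transfected with human CCR6 and a CRE-luc2P reporter, used 48 h later. Compounds incubated with cells in medium containing 6 μM Forskolin and 6 nM CCL20 (assay-medium levels), 0.1% DMSO final, 5 h at 37° C; luminescence read, relative −Log IC50 from four-parameter fit.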

IC50 (human CCR6 [1]) [nM] | IC50 (human CCR6 [2]) [nM] | SMILES
251 | 126 | N=S(=O)(c1ccc(-c2ccc3nccn3c2)cc1)[C@H]1CC[C@H](Nc2ccc(S(F)(F)(F)(F)F)cc2)CC1 (single isomer, unassigned; (+)) [Example 128, (+)-(4-{imidazo[1,2-a]pyridin-6-yl}phenyl)[trans-4-{[4-(pentafluoro-λ^6-sulfanyl)phenyl]Amino}cyclohexyl](imino)-λ^6-sulfanone]
15.8 | 158 | O=C1NCCc2sc(-c3ccc(S(=O)(=O)[C@H]4CC[C@H](Nc5ccc(S(F)(F)(F)(F)F)cc5)CC4)cc3)cc21 [Example 153, 2-(4-{[trans-4-{[4-(pentafluoro-λ^6-sulfanyl)phenyl]amino}cyclohexyl]sulfonyl}phenyl)-4H,5H,6H,7H-thieno[3,2-c]pyridin-4-one]
251 | 200 | CNC(=O)c1cccc(-c2ccc(S(=N)(=O)[C@H]3CC[C@H](Nc4ccc(S(F)(F)(F)(F)F)cc4)CC3)cc2)c1 (stereo partly drawn) [Example 98, N-methyl-4′-{[trans-4-{[4-(pentafluoro-λ^6-sulfanyl)phenyl]Amino}cyclohexyl]sulfonimidoyl}-[1,1′-biphenyl]-3-carboxamide]
126 | 200 | N=S(=O)(c1ccc(-c2ccc3nccn3c2)cc1)N1CCC(Nc2ccc(S(F)(F)(F)(F)F)cc2)CC1 (stereo not drawn) [Example 124, (4-{imidazo[1,2-a]pyridin-6-yl}phenyl)(4-{[4-(pentafluoro-λ^6-sulfanyl)phenyl]Amino}piperidin-1-yl)(imino)-λ^6-sulfanone]
200 | 251 | N=S(=O)(c1ccc(-c2ccc3c(c2)CC(=O)N3)cc1)N1CCC(Nc2ccc(S(F)(F)(F)(F)F)cc2)CC1 (stereo not drawn) [Example 123, 5-{4-[(4-{[4-(pentafluoro-λ^6-sulfanyl)phenyl]Amino}piperidin-1-yl)sulfonimidoyl]phenyl}-2,3-dihydro-1H-indol-2-one]
39.8 | 158 | O=C1NCCn2cc(-c3ccc(S(=O)(=O)[C@H]4CC[C@H](Nc5ccc(S(F)(F)(F)(F)F)cc5)CC4)cc3)cc21 [Example 156, 7-(4-{[trans-4-{[4-(pentafluoro-λ^6-sulfanyl)phenyl]amino}cyclohexyl]sulfonyl}phenyl)-1H,2H,3H,4H-pyrrolo[1,2-a]pyrazin-1-one]
25.1 | 251 | Cc1n[nH]c2cnc(-c3ccc(S(=O)(=O)[C@H]4CC[C@H](Nc5ccc(S(F)(F)(F)(F)F)cc5)CC4)cc3)cc12 [Example 142, 4-(pentafluoro-λ^6-sulfanyl)-N-[trans-4-(4-{3-methyl-1H-pyrazolo[3,4-c]pyridin-5-yl}benzenesulfonyl)cyclohexyl]aniline]

Further lines, the compound ahead of its results:

SMILES | IC50 (human CCR6 [1]) [nM] | IC50 (human CCR6 [2]) [nM]
N#Cc1cnc2ccc(-c3ccc(S(=O)(=O)N4CCC(Nc5ccc(S(F)(F)(F)(F)F)cc5)CC4)c(F)c3)cn12 [Example 73, 6-{3-fluoro-4-[(4-{[4-(pentafluoro-λ^6-sulfanyl)phenyl]Amino}piperidin-1-yl)sulfonyl]phenyl}imidazo[1,2-a]pyridine-3-carbonitrile] | 631 | 501
Cc1cnc2ccc(-c3ccc(S(=O)(=O)[C@H]4CC[C@H](Nc5ccc(S(F)(F)(F)(F)F)cc5)CC4)cc3)cn12 [Example 13, 4-(pentafluoro-λ^6-sulfanyl)-N-[trans-4-(4-{3-methylimidazo[1,2-a]pyridin-6-yl}benzenesulfonyl)cyclohexyl]aniline] | 5.01 | 79.4
CC(C)c1cnc2ccc(-c3ccc(S(=O)(=O)[C@H]4CC[C@H](Nc5ccc(S(F)(F)(F)(F)F)cc5)CC4)cc3)cn12 [Example 63, 4-(pentafluoro-λ^6-sulfanyl)-N-[trans-4-{4-[3-(propan-2-yl)imidazo[1,2-a]pyridin-6-yl]benzenesulfonyl}cyclohexyl]aniline] | 12.6 | 39.8
O=c1[nH]nc2ccc(-c3ccc(S(=O)(=O)[C@H]4CC[C@H](Nc5ccc(S(F)(F)(F)(F)F)cc5)CC4)cc3)cn12 [Example 66, 6-(4-{[trans-4-{[4-(pentafluoro-λ^6-sulfanyl)phenyl]Amino}cyclohexyl]sulfonyl}phenyl)-2H,3H-[1,2,4]triazolo[4,3-a]pyridin-3-one] | 39.8 | 63.1
O=S(=O)(c1ccc(-c2cn3ccnc3cn2)cc1)[C@H]1CC[C@H](Nc2ccc(S(F)(F)(F)(F)F)cc2)CC1 [Example 44, 4-(pentafluoro-λ^6-sulfanyl)-N-[trans-4-(4-{imidazo[1,2-a]pyrazin-6-yl}benzenesulfonyl)cyclohexyl]aniline] | 158 | 158
COCc1nnc2ccc(-c3ccc(S(=O)(=O)N4CCC(Nc5ccc(S(F)(F)(F)(F)F)cc5)CC4)cc3)cn12 [Example 30, 1-{4-[3-(methoxymethyl)-[1,2,4]triazolo[4,3-a]pyridin-6-yl]benzenesulfonyl}-N-[4-(pentafluoro-λ^6-sulfanyl)phenyl]piperidin-4-amine] | 251 | 50.1
N=S(=O)(c1ccc(-c2ccc(C(N)=O)cc2)cc1)[C@H]1CC[C@H](Nc2ccc(S(F)(F)(F)(F)F)cc2)CC1 (stereo partly drawn) [Example 96, 4′-{[trans-4-{[4-(pentafluoro-λ^6-sulfanyl)phenyl]Amino}cyclohexyl]sulfonimidoyl}-[1,1′-biphenyl]-4-carboxamide] | 501 | 158
NC(=O)c1cccc(-c2ccc(S(=O)(=O)[C@H]3CC[C@H](Nc4ccc(S(F)(F)(F)(F)F)cc4)CC3)cc2)c1 [Example 23, 4′-{[trans-4-{[4-(pentafluoro-λ^6-sulfanyl)phenyl]Amino}cyclohexyl]sulfonyl}-[1,1′-biphenyl]-3-carboxamide] | 50.1 | 50.1
CNC(=O)c1ccc(-c2ccc(S(=O)(=O)[C@H]3CC[C@H](Nc4ccc(S(F)(F)(F)(F)F)cc4)CC3)cc2)cc1 [Example 16, N-methyl-4′-{[trans-4-{[4-(pentafluoro-λ^6-sulfanyl)phenyl]Amino}cyclohexyl]sulfonyl}-[1,1′-biphenyl]-4-carboxamide] | 12.6 | 63.1
Cc1cn2cc(-c3ccc(S(=O)(=O)[C@H]4CC[C@H](Nc5ccc(S(F)(F)(F)(F)F)cc5)CC4)cc3)ncc2n1 [Example 43, 4-(pentafluoro-λ^6-sulfanyl)-N-[trans-4-(4-{2-methylimidazo[1,2-a]pyrazin-6-yl}benzenesulfonyl)cyclohexyl]aniline] | 316 | 158
O=S(=O)(c1ccc(-c2ccc3nncn3c2)cc1)[C@H]1CC[C@H](Nc2ccc(S(F)(F)(F)(F)F)cc2)CC1 [Example 36, 4-(pentafluoro-λ^6-sulfanyl)-N-[trans-4-(4-{[1,2,4]triazolo[4,3-a]pyridin-6-yl}benzenesulfonyl)cyclohexyl]aniline] | 1580 | 126
CN(C)C(=O)c1ccc(-c2ccc(S(=O)(=O)[C@H]3CC[C@H](Nc4ccc(S(F)(F)(F)(F)F)cc4)CC3)cc2)cc1 [Example 15, N,N-dimethyl-4′-{[trans-4-{[4-(pentafluoro-λ^6-sulfanyl)phenyl]Amino}cyclohexyl]sulfonyl}-[1,1′-biphenyl]-4-carboxamide] | 63.1 | 79.4
O=C1Cc2ccc(-c3ccc(S(=O)(=O)[C@H]4CC[C@H](Nc5ccc(S(F)(F)(F)(F)F)cc5)CC4)cc3)cc2N1 [Example 59, 6-(4-{[trans-4-{[4-(pentafluoro-λ^6-sulfanyl)phenyl]Amino}cyclohexyl]sulfonyl}phenyl)-2,3-dihydro-1H-indol-2-one] | 15.8 | 158
O=S(=O)(c1ccc(-c2cn3ccnc3cn2)cc1)N1CCC(Nc2ccc(S(F)(F)(F)(F)F)cc2)CC1 [Example 24, 1-(4-{imidazo[1,2-a]pyrazin-6-yl}benzenesulfonyl)-N-[4-(pentafluoro-λ^6-sulfanyl)phenyl]piperidin-4-amine] | 501 | 200
